Results taken from patent publication US5849525A, “Compositions corresponding to a proton-coupled peptide transporter and methods of making and using same” (Brigham and Women's Hospital, Inc., priority 1995, dated 1998).
Each block holds one molecule with its values, some of them ahead of it. Square brackets hold non-standard residues; d marks the D form. Peptide text beside a SMILES is read from it. Sar = CNCC(=O)O

Experiments:
[1] = target: proton-coupled peptide transporter derived from rabbit (rabbit)
[2] = target: proton-coupled peptide transporter derived from rabbit (rabbit); remark: listed apart in the source
[3] = target: T1, proton-coupled peptide transporter (Oryctolagus cuniculus, UniProt P36836); test: Two-electrode voltage clamp of Xenopus laevis oocytes injected with transporter cRNA: substrate-evoked inward currents and Km; type: cell-based, rabbit; conditions: uptake solution pH 5.5
T1 construct: Xenopus laevis oocytes were injected with cRNA coding the proton-coupled peptide transporter; expressed in transfected cells; host or cells: Xenopus laevis oocytes injected with cRNA transcribed in vitro from the cloned cDNA
T1 sequence (P36836 1-707): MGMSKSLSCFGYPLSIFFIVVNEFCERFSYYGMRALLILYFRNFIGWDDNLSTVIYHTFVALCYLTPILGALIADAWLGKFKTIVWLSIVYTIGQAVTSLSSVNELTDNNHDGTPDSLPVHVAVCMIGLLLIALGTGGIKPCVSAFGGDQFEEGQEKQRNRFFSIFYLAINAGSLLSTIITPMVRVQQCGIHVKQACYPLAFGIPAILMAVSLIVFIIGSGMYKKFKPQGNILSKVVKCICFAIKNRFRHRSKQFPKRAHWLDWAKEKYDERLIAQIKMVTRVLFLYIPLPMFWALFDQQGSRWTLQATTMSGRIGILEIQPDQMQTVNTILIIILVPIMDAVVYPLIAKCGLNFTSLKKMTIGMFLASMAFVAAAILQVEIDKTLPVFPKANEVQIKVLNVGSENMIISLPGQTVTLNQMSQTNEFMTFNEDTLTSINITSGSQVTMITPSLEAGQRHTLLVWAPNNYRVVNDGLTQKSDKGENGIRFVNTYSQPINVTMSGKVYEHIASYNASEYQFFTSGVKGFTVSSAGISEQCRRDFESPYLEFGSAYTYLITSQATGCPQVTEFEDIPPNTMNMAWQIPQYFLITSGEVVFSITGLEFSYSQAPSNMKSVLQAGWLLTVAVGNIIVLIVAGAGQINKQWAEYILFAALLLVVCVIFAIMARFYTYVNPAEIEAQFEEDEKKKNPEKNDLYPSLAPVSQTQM
From the text: These oocytes were subjected to two electrode voltages clamp analysis (Gene Clamp 500, Axon Instruments, California) in the manner described in Kanaisy & Hediger, M. A. Nature 360, 467-71 (1992).
FIG. 9 depicts electrophysiological measurements of transformed cocytes as a percent of glycyl-sarcosine evoked current. Data representing glycyl-sarcosine are depicted as a solid black bar. Data representing peptide are depicted with dotted bars. Data representing antibiotics are depicted with hatched bars.
By altering peptide concentrations, current amplitudes for different compositions, Km values were determined.

[4] = target: T1, proton-coupled peptide transporter; test: C14-glycyl-sarcosine uptake in cRNA-transformed oocytes in sodium-free or chloride-free solutions and at different pH; type: cell-based, rabbit
From the text: This example describes the stoichiometry and voltage dependence of the proton-coupled peptide transporter. Four days after transformation with cRNA coding the proton-coupled peptide transporter, Xenopus laevis oocytes were examined in the presence of 1 mMC^14 -glycyl-sarcosine in standard uptake solution (pH 5.5), modified to be sodium or chloride ion free.
In sodium-free solutions, the sodium chloride was replaced with choline-chloride. In chloride free solutions, the sodium chloride was replaced with sodium nitrate.
Glycyl-sarcosine uptake was determined from the slope of the time-dependence of 1 to 5 minutes uptake. The results are depicted in bar graph form in FIG. 10. […] That is, the presence of or absence of sodium ion and the presence or absence of chloridion had little or no effect on glycyl-sarcosine uptake. In each instance the uptake was approximately 1000 pmol glycyl-sarcosine.
In this example Xenopus laevis oocytes transformed with cRNA coding the proton-coupled peptide transporter of the preceding example were evaluated for C^14 -glycyl-sarcosine uptake in the standard uptake solutions modified to different pH. Glycyl-sarcosine uptake was determined from the slope of time-dependence of 1 to 5 minute uptakes.

[5] = target: T1, proton-coupled peptide transporter; test: Uptake of C14-glycyl-sarcosine by Xenopus laevis oocytes injected with rabbit jejunum poly(A)+ RNA or transporter cRNA; type: cell-based; conditions: 100 μM C14-Gly-Sar, 1 hour, pH 5.5
Experimental: This example describes the uptake of radiolabeled glycyl-sarcosine (C^14 -Gly-Sar) by Xenopus laevis oocytes injected with poly(A)^+ RNA from rabbit jejunum or with cRNA synthesized by in vitro transcription of proton-coupled peptide transporter cDNA.
All uptakes in this and the following figures were performed with 6-8 oocytes, 3 days after injection. RNA-injected oocytes were injected with 25 ng cRNA in 50 nl.
Oocytes injected with cRNA coding a proton-coupled peptide transporter were incubated for 1 hour in uptake solution (100 mM NaCl, 2 mM KCl 1 mM MgCl2, 1 mM CaCl2, 3 mM HEPES, 3 mM MES, 3 mM Tris, pH 5.5) in the presence of 100 μM C^14 -glycol-sarcosine (specific radioactivity, 112 mCi/mmol, custom synthesized by the Radiochemical Center, Amersham, U.K.). The oocytes were rinsed with ice-cold washing solution (uptake solution with pH adjusted to 7.5 with Tris base) and the radioactivity of each oocyte was measured by scintillation counting.

[6] = target: T1, proton-coupled peptide transporter; test: Hybrid depletion of rabbit small intestine poly(A)+ RNA with antisense/sense DNA oligonucleotide before oocyte injection, glycyl-sarcosine uptake; type: cell-based; conditions: oocytes receiving rabbit poly(A)+ RNA without sense or antisense nucleic acid
From the text: This example describes hybrid depletion of rabbit small intestine poly(A)^+ RNA before injection into Xenopus laevis oocytes. A first admixture was formed of rabbit small intestine derived poly(A)^+ RNA and an antisense DNA oligonucleotide corresponding to the 5'-end coding region of cDNA corresponding to the proton-coupled peptide transporter.
A second admixture was formed of rabbit small intestine derived poly(A)^+ RNA and a sense DNA oligonucleotide corresponding to the same region as the antisense DNA. Both DNAs were twenty-three nucleotides in length. Rabbit jejunum poly(A)^+ RNA (0.5 μg/μl) was incubated with the oligonucleotide (0.25 μg/μl in the presence of 50 mM NaCl at 42° C. for one hour and then injected into oocytes. The uptake of the peptide, glycyl-sarcosine, was measured three days after injection.

[7] = target: T1, proton-coupled peptide transporter; test: Stoichiometry (uptake versus net charge flux) and cumulative C14-glycyl-sarcosine uptake in cRNA-transformed oocytes; type: cell-based, rabbit
Experimental: (§1) Internal pH measurements were taken with microelectrodes, silanized borosilicate pipettes with tips filled with a hydrogen ionophore (I-cocktail B, Fluka). The membrane potential was measured in uptake solution (pH 5.5) containing 1 mM glycyl-sarcosine. After washing with uptake solution without glycyl-sarcosine, each oocyte was clamped at this membrane potential. […] The equation used to calculate the electrochemical potential difference for H^+ (ΔμH) was ΔμH +=RT 1n ([H^+ ] i/[H^+ ]o)+zF (Vi -Vo) and that for Gly-Sar (ΔμGly-Sar) was ΔμGly-Sar =RT 1n ([Gly-Sar] i/ [Gly-Sar]o), where; R is the gas constant, T the absolute temperature (295° K.), F is Faraday's constant, pHi and pHo the intra- and extracellular pH, Gly-Sari and Gly-Saro, the intra-and extracelluar Gly-Sar concentrations, and z the valency.
This 1:1 coupling ratio is consistent with analysis of the coupling ratio based on thermodynamic considerations. Cumulative uptake of C^14 -glycyl-sarcosine was measured as depicted in FIG. 14.
Data represent the average of the uptakes from 20-24 oocytes after subtraction of the uptakes of water-injected oocytes. After a ten hour incubation in 1 mM non-radiolabeled 1 mM glycyl-sarcosine, the ^14 C-glycyl-sarcosine influx was 1754±403 (n=7) pmol/oocyte.

Xenopus laevis oocytes = test: Thin-layer chromatography of solubilized oocytes incubated in 14C-Gly-Sar (hydrolysis); type: in vitro ADME; conditions: 1 mM 14C-Gly-Sar, pH 5.5, seven hours
[8] = target: T1, proton-coupled peptide transporter; test: Intracellular pH (pH-sensitive microelectrode) and membrane potential of cRNA-transformed oocytes; type: cell-based, rabbit; conditions: pHo 5.5 solution, Gly-Sar 10 mM; for membrane potential Vm after application: depolarized from -20 mV
From the text: The example describes hydrogen ion cotransport by Xenopus laevis oocytes transformed with cRNA coding a proton-coupled peptide transporter. Transformed Xenopus laevis oocytes of Example 5 and 6 were implanted with microelectrodes and membrane potential set with electrodes.
as §1, with “The membrane potential was measured in uptake solution (pH 5.5) containing 1 mM glycyl-sarcosine.” left out
Oocytes were initially kept in pH 7.4 medium (96 mM NaCl, 1 mM KCl, 1.8 mM CaCl2, 1.0 mM MgCl2 and 5 HEPES). […] In water-injected oocytes, lowering pHo from 7.4 to 5.5 caused a continuous pHi decrease which was not dependent on the expression of the proton-coupled peptide transporter.

[9] = substrate: CC(C)C[C@H](NC(=O)CN)C(=O)O; test: cells, lysate or membranes; type: cell-based, rabbit; conditions: other: current amplitudes at altered substrate concentrations, pH 5.5, cRNA-injected oocytes
[10] = substrate: CN(CC(=O)O)C(=O)CN; test: cells, lysate or membranes; type: cell-based, rabbit; conditions: other: current amplitudes at altered substrate concentrations, pH 5.5, cRNA-injected oocytes
[11] = substrate: C[C@H](N)C(=O)N[C@@H](CC(=O)O)C(=O)O; test: cells, lysate or membranes; type: cell-based, rabbit; conditions: other: current amplitudes at altered substrate concentrations, pH 5.5, cRNA-injected oocytes
[12] = substrate: NCC(=O)NCC(=O)NCC(=O)O; test: cells, lysate or membranes; conditions: other: current amplitudes at altered substrate concentrations, pH 5.5, cRNA-injected oocytes
[13] = substrate: CC1(C)S[C@@H]2[C@H](NC(=O)C3(N)CCCCC3)C(=O)N2[C@H]1C(=O)O; test: cells, lysate or membranes; conditions: other: current amplitudes at altered substrate concentrations, pH 5.5, cRNA-injected oocytes

Molecule: CC1(C)S[C@@H]2[C@H](NC(=O)C3(N)CCCCC3)C(=O)N2[C@H]1C(=O)O [Cyclacillin]
substrate-evoked inward current [3]: inward current

Molecule: CN(CC(=O)O)C(=O)CN [Glycyl-sarcosine, glycyl-sarcosine] (H-Gly-[Sar]-OH)
glycyl-sarcosine uptake ([4]; 1 mM C14-glycyl-sarcosine, pH 5.5, presence or absence of sodium or chloride ion): approximately 1000 pmol
pH of maximum glycyl-sarcosine uptake ([4]; standard uptake solutions modified to different pH): 5.5
uptake of glycyl-sarcosine ([5]; oocytes receiving rabbit jejunum poly(A)+ RNA): less than 20 pmol
uptake of glycyl-sarcosine ([5]; oocytes receiving transporter cRNA): ~200 pmol
uptake of glycyl-sarcosine [6]: approximately 8 pmol
substrate-evoked inward current [3]: strongest current
time to thermodynamic equilibrium of cumulative uptake ([7]; C14-glycyl-sarcosine, cRNA-transformed oocytes): approximately eight
14C-glycyl-sarcosine influx ([7]; after ten hour incubation in 1 mM non-radiolabeled glycyl-sarcosine, n=7): 1754±403 pmol/oocyte
fraction of intracellular 14C-label that is hydrolyzed glycyl-sarcosine (Xenopus laevis oocytes): no more than one third
membrane potential Vm after application [8]: +15 mV
effect on intracellular pH (pHi) ([8]; listed as Gly-Sar): large intracellular acidification
effect on intracellular pH (pHi) ([8]; listed as glycyl-sarcosine): decrease in pH

Molecule: CC(C)C[C@H](NC(=O)CN)C(=O)O [Glycyl-leucine]
substrate-evoked inward current [3]: inward current

B1: proton-coupled peptide transporter (Oryctolagus cuniculus) (protein)
chain: MGMSKSLSCFGYPLSIFFIVVNEFCERFSYYGMRALLILYFRNFIGWDDNLSTVIYHTFVALCYLTPILGALIADAWLGKFKTIVWLSIVYTIGQAVTSLSSVNELTDNNHDGTPDSLPVHVAVCMIGLLLIALGTGGIKPCVSAFGGDQFEEGQEKQRNRFFSIFYLAINAGSLLSTIITPMVRVQQCGIHVKQACYPLAFGIPAILMAVSLIVFIIGSGMYKKFKPQGNILSKVVKCICFAIKNRFRHRSKQFPKRAHWLDWAKEKYDERLIAQIKMVTRVLFLYIPLPMFWALFDQQGSRWTLQATTMSGRIGILEIQPDQMQTVNTILIIILVPIMDAVVYPLIAKCGLNFTSLKKMTIGMFLASMAFVAAAILQVEIDKTLPVFPKANEVQIKVLNVGSENMIISLPGQTVTLNQMSQTNEFMTFNEDTLTSINITSGSQVTMITPSLEAGQRHTLLVWAPNNYRVVNDGLTQKSDKGENGIRFVNTYSQPINVTMSGKVYEHIASYNASEYQFFTSGVKGFTVSSAGISEQCRRDFESPYLEFGSAYTYLITSQATGCPQVTEFEDIPPNTMNMAWQIPQYFLITSGEVVFSITGLEFSYSQAPSNMKSVLQAGWLLTVAVGNIIVLIVAGAGQINKQWAEYILFAALLLVVCVIFAIMARFYTYVNPAEIEAQFEEDEKKKNPEKNDLYPSLAPVSQTQM
notes: Xenopus laevis oocytes were injected with cRNA coding the proton-coupled peptide transporter; expressed in transfected cells; host or cells: Xenopus laevis oocytes injected with cRNA transcribed in vitro from the cloned cDNA
Km [9]: 81 µM
Km [10]: 1900 µM
Km [11]: 143 µM
Km [12]: 5100 µM
Km [13]: 137 µM

Now from value to molecule:

uptake of C14-glycyl-sarcosine by oocytes [1]: 200 pmol
Km from current amplitudes [2]: 1900 µM
Molecule: glycyl-sarcosine (peptide)

substrate-evoked inward current [3]: Significant currents
Molecule: CC1=C(C(=O)O)N2C(=O)[C@@H](NC(=O)[C@H](N)c3ccc(O)cc3)[C@H]2SC1 [cefadroxil]

substrate-evoked inward current [3]: Significant currents
Molecule: CC1=C(C(=O)O)N2C(=O)[C@@H](NC(=O)[C@H](N)C3=CCC=CC3)[C@H]2SC1 [cephradine]

effect on intracellular pH (pHi) [8]: no detectable response
membrane potential Vm after application [8]: no detectable response
Molecule: NCC(=O)O [glycine]
